Results from patent US20260200921A1, “SUBSTITUTED AMINOPYRIDINE COMPOUNDS AS AKT INHIBITORS” (Atavistik Bio, Inc., priority 2023, published 2026).
pIC50: −log10 of the molar value.

Assays:
wildtype AKT1 = target: T1, wildtype AKT1 (Homo sapiens, UniProt P31749); test: AKT1 kinase assay, wildtype (TR-FRET, Lance); type: biochemical; conditions: full-length human recombinant wildtype AKT1 activated by PDPK1; Ulight-CREBtide substrate; either 50 μM ATP or 2 mM ATP
T1 construct: Purified human recombinant kinase full-length wildtype AKT1 was expressed in insect cells; made in house; host or cells: insect cells
Protocol: AKT1 kinase assay: Inhibitory effects of compounds on wildtype AKT1 were undertaken in a 10-pt dose response kinase activity assay measuring phospho-peptide product formation based on TR-FRET signal as described in the following paragraph.
(§1) Purified human recombinant kinase full-length wildtype AKT1 was expressed in insect cells and activated in vitro by PDPK1. Ulight™-CREBtide (PerkinElmer, catalog number TRF0107) was used as the peptide substrate. The reaction buffer consisted of 50 mM HEPES pH 7.5, 10 mM MgCl2, 0.01% Triton X-100, 0.01% BSA, 2 mM DTT, 0.6 nM AKT1, 50 nM Ulight™-CREBtide and either 50 μM ATP or 2 mM ATP. The compound solution was prepared as 10 mM DMSO stock. For the assay, a 1:3 serial dilution 10-pt dose response of test compounds, in duplicate, for each concentration were dispensed into a 384-well plate (Corning, catalog number 4513). Final DMSO concentration in the assay was 1%. The enzyme mixture (5 μL, 1.2 nM) were added and the mixture was incubated for 15 min at RT prior to the start of the kinase reaction by the addition of 5 μL substrate mixture (100 nM Ulight™-CREBtide). The reaction was stopped after 60 min of incubation at RT by the addition of 10 μL of Detection Mix (PerkinElmer. #CR97-100) consisting of Europium-anti-phospho-CREB (Ser133) (Perkin Elmer, catalog numberTRF0200). Incubation with the detection mix for a further 60 min allowed binding of antibody to the phospho-Ulight™ CREBtide. The fluorescence emissions at 620 nm and 665 nm after excitation at 350 nm was measured using Envision reader. The ratio of the emissions at 665 nm and at 620 nm provided the measure for the amount of phosphorylated CREBtide product of AKT1 kinase activity. To determine the IC50 values, the data was normalized (enzyme reaction without inhibitor=0% inhibition, all other assay components but no enzyme=100% inhibition) and IC50 values were calculated by a 4-parameter fit using an in-house developed protocol.

AKT1 E17K = target: T2, AKT1 E17K (Homo sapiens, UniProt P31749, E17K); test: AKT1 E17K kinase assay (TR-FRET, Lance); type: biochemical; conditions: full-length human recombinant AKT1 E17K activated by PDPK1; Ulight-CREBtide substrate; either 50 μM ATP or 2 mM ATP
T2 construct: Purified human recombinant kinase full-length AKT1 E17K was expressed in insect cells; made in house; host or cells: insect cells
Protocol: AKT1 E17K kinase assay: Inhibitory effects of compounds on AKT1 E17K were undertaken in a 10-pt dose response kinase activity assay measuring phospho-peptide product formation based on TR-FRET signal as described in the following paragraph.
as §1, with “full-length” for “full-length wildtype”, “AKT1 E17K” for “AKT1”, “AKT1 E17K,” for “AKT1,”, “(PerkinElmer,” for “(PerkinElmer.”

T2 sequence (P31749 whole entry E17K): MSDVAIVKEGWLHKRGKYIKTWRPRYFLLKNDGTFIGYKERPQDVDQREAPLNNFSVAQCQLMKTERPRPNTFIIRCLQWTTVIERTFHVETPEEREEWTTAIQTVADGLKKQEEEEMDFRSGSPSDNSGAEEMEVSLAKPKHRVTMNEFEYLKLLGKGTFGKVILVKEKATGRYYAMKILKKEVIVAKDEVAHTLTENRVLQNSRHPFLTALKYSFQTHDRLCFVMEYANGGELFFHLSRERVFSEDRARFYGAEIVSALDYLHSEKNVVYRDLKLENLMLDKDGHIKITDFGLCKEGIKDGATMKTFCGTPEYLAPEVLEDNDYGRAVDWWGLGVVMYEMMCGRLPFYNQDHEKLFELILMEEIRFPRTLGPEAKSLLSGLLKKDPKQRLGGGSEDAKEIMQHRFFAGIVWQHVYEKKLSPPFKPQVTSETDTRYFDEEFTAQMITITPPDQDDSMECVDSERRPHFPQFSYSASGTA
T1 sequence (P31749 whole entry): as the sequence (P31749 whole entry E17K) above, with K17E counted along it

Row | pIC50 (wildtype AKT1) | pIC50 (AKT1 E17K) | Compound
1 | > 6.30 | 6.70 to 7.30 | Cc1cc(O)n(-c2ccc(C(=O)NCc3ccc(-n4c(-c5cccnc5N)nc5ccc(-c6ccccc6)nc54)cc3)c(F)c2)n1 [Compound I-4, N-[[4-[2-(2-amino-3-pyridyl)-5-phenyl-imidazo[4,5-b]pyridin-3-yl]phenyl]methyl]-2-fluoro-4-(5-hydroxy-3-methyl-pyrazol-1-yl)benzamide]
2 | > 6.30 | ≤ 6.30 | Cc1cc(O)n(-c2ccc(C(=O)NCc3ccc(-n4c(-c5cccnc5N)nc5cc(-c6cccnc6)cnc54)cc3)cc2)n1 [Compound I-24, N-[[4-[2-(2-amino-3-pyridyl)-6-(3-pyridyl)imidazo[4,5-b]pyridin-3-yl]phenyl]methyl]-4-(5-hydroxy-3-methyl-pyrazol-1-yl)benzamide]
3 | < 6.30 | ≤ 6.30 | Cc1cc(O)n(-c2ccc(C(=O)NCc3ccc(-n4c(-c5cccnc5N)nc5ccc(-c6ccccc6)cc54)cc3)cc2)n1 [Compound I-28, N-[[4-[2-(2-amino-3-pyridyl)-6-phenyl-benzimidazol-1-yl]phenyl]methyl]-4-(5-hydroxy-3-methyl-pyrazol-1-yl)benzamide]
4 | > 6.30 | > 7.30 | Cc1nc(NC(=O)c2cccc(-c3nsc(=O)[nH]3)c2)ccc1-n1c(-c2cccnc2N)nc2ccc(-c3ccccc3)nc21 [Compound I-40, N-(5-(2-(2-aminopyridin-3-yl)-5-phenyl-3H-imidazo[4,5-b]pyridin-3-yl)-6-methylpyridin-2-yl)-3-(5-oxo-4,5-dihydro-1,2,4-thiadiazol-3-yl)benzamide]
5 | < 6.30 | ≤ 6.30 | Cc1cc(O)n(-c2ccc(C(=O)NCc3ccc(-n4c(-c5cccnc5N)nc5cc(-c6ccccc6)cnc54)cc3)cc2)n1 [Compound I-23, N-(4-(2-(2-aminopyridin-3-yl)-6-phenyl-3H-imidazo[4,5-b]pyridin-3-yl)benzyl)-4-(5-hydroxy-3-methyl-1H-pyrazol-1-yl)benzamide]
6 | > 6.30 | > 7.30 | Nc1ncccc1-c1nc2ccc(-c3ccccc3)nc2n1-c1ccc(C2CN(C(=O)c3ccc(-c4nn[nH]n4)cc3)C2)cc1 [Compound I-26, (4-(2H-tetrazol-5-yl)phenyl)(3-(4-(2-(2-aminopyridin-3-yl)-5-phenyl-3H-imidazo[4,5-b]pyridin-3-yl)phenyl)azetidin-1-yl)methanone]
7 | > 6.30 | 6.70 to 7.30 | CN(Cc1ccc(-n2c(-c3cccnc3N)nc3ccc(-c4ccccc4)nc32)cc1)[C@H]1CC[C@@H](c2nsc(=O)[nH]2)CC1 [Compound I-48, 3-((1s,4s)-4-((4-(2-(2-aminopyridin-3-yl)-5-phenyl-3H-imidazo[4,5-b]pyridin-3-yl)benzyl)(methyl)amino)cyclohexyl)-1,2,4-thiadiazol-5(4H)-one]
8 | > 6.30 | 6.70 to 7.30 | COC(=O)Cc1cc(O)n(-c2ccc(C(=O)NCc3ccc(-n4c(-c5cccnc5N)nc5ccc(-c6ccccc6)nc54)cc3)cc2)n1 [Compound I-9, Methyl 2-(1-(4-((4-(2-(2-aminopyridin-3-yl)-5-phenyl-3H-imidazo[4,5-b]pyridin-3-yl)benzyl)carbamoyl)phenyl)-5-hydroxy-1H-pyrazol-3-yl)acetate]
9 | > 6.30 | 6.70 to 7.30 | N#Cc1cc(O)n(-c2ccc(C(=O)NCc3ccc(-n4c(-c5cccnc5N)nc5ccc(-c6ccccc6)nc54)cc3)cc2)n1 [Compound I-15, N-(4-(2-(2-aminopyridin-3-yl)-5-phenyl-3H-imidazo[4,5-b]pyridin-3-yl)benzyl)-4-(3-cyano-5-hydroxy-1H-pyrazol-1-yl)benzamide]
10 | > 6.30 | ≤ 6.30 | Nc1ncccc1-c1nc2ccc(-c3ccccc3)nc2n1-c1ccc(C2CN(C[C@H]3CC[C@H](c4nsc(=O)[nH]4)CC3)C2)cc1 [Compound I-43, 3-((1r,4r)-4-((3-(4-(2-(2-aminopyridin-3-yl)-5-phenyl-3H-imidazo[4,5-b]pyridin-3-yl)phenyl)azetidin-1-yl)methyl)cyclohexyl)-1,2,4-thiadiazol-5(4H)-one]
11 | > 6.30 | ≤ 6.30 | Nc1ncccc1-c1nc2ccc(-c3ccccc3)nc2n1-c1ccc(C2CCN(C[C@H]3CC[C@@H](c4nsc(=O)[nH]4)CC3)CC2)cc1 [Compound I-46, 3-((1s,4s)-4-((4-(4-(2-(2-aminopyridin-3-yl)-5-phenyl-3H-imidazo[4,5-b]pyridin-3-yl)phenyl)piperidin-1-yl)methyl)cyclohexyl)-1,2,4-thiadiazol-5(4H)-one]
12 | > 6.30 | 6.30 to 6.70 | Cc1cc(C#N)n(-c2ccc(C(=O)NCc3ccc(-n4c(-c5cccnc5N)nc5ccc(-c6ccccc6)nc54)cc3)cc2)n1 [Compound I-13, N-(4-(2-(2-aminopyridin-3-yl)-5-phenyl-3H-imidazo[4,5-b]pyridin-3-yl)benzyl)-4-(5-cyano-3-methyl-1H-pyrazol-1-yl)benzamide]
13 | > 6.30 | 6.30 to 6.70 | N#Cc1cnn(-c2ccc(C(=O)NCc3ccc(-n4c(-c5cccnc5N)nc5ccc(-c6ccccc6)nc54)cc3)cc2)c1 [Compound I-12, N-(4-(2-(2-aminopyridin-3-yl)-5-phenyl-3H-imidazo[4,5-b]pyridin-3-yl)benzyl)-4-(4-cyano-1H-pyrazol-1-yl)benzamide]
14 | > 6.30 | > 7.30 | Cc1cc(O)n(-c2ccc(C(=O)N3CC(c4ccc(-n5c(-c6cccnc6N)nc6ccc(-c7ccccc7)nc65)cc4)C3)cc2)n1 [Compound I-25, (3-(4-(2-(2-aminopyridin-3-yl)-5-phenyl-3H-imidazo[4,5-b]pyridin-3-yl)phenyl)azetidin-1-yl)(4-(5-hydroxy-3-methyl-1H-pyrazol-1-yl)phenyl) methanone]
15 | > 6.30 | 6.70 to 7.30 | Cc1nc(NC(=O)c2ccc(-c3nsc(=O)[nH]3)cc2)ccc1-n1c(-c2cccnc2N)nc2ccc(-c3ccccc3)nc21 [Compound I-42, N-(5-(2-(2-aminopyridin-3-yl)-5-phenyl-3H-imidazo[4,5-b]pyridin-3-yl)-6-methylpyridin-2-yl)-4-(5-oxo-4,5-dihydro-1,2,4-thiadiazol-3-yl)benzamide]
16 | > 6.30 | ≤ 6.30 | Cn1ncc(-c2ccc(C(=O)NCc3ccc(-n4c(-c5cccnc5N)nc5ccc(-c6ccccc6)nc54)cc3)cc2)c1O [Compound I-29, N-[[4-[2-(2-amino-3-pyridyl)-5-phenyl-imidazo[4,5-b]pyridin-3-yl]phenyl]methyl]-4-(5-hydroxy-1-methyl-pyrazol-4-yl)benzamide]
17 | > 6.30 | ≤ 6.30 | Nc1ncccc1-c1nc2ccc(-c3ccccc3)nc2n1-c1ccc(CNC(=O)c2cccc(-n3nc(C(F)(F)F)cc3O)c2)cc1 [Compound I-7, N-(4-(2-(2-aminopyridin-3-yl)-5-phenyl-3H-imidazo[4,5-b]pyridin-3-yl)benzyl)-3-(5-hydroxy-3-(trifluoromethyl)-1H-pyrazol-1-yl)benzamide]
